Laboratory results from patent publication US20040014777A1, “Remedies for retinal nerve diseases containing 1,2-ethanediol derivatives or salts thereof” (Toyama Chemical Co., LTD., priority 2000, published 2004).

Legend:
[1] = test system: retinal ganglion cells; experiment: Protective effect on retinal ganglion cells in a glaucoma model (India ink injection and angle photocoagulation); type: in vivo, Wistar white rats; conditions: T-588 100 mg/kg orally
From the text: 1. Protective Effect on Retinal Ganglion Cells in a Glaucoma Model
Wistar white rats [male, body weight 290-310 g] were subjected to a general anesthesia by intraperitoneal injection of ketamine hydrochloride and xylazine hydrochloride. Subsequently, the rats were subjected to an instillation anesthesia with oxybuprocaine hydrochloride. After the measuring both the intraocular pressures with a pneumatonometer (Model Classic 30:Mentor, Norwell, Mass., U.S.A.), the anterior chamber of the right eye was punctured with a 30-gage needle to aspirate the aqueous humor, and then about 30 μL of 35% India ink was injected thereinto. […]
Immediately after the coagulation, ophthalmoscopy was performed in all the animals in order to confirm the occlusion of retina central artery. Five days after the angle photocoagulation, the intraocular pressure was measured to confirm an elevation of the intraocular pressure in the right eye. […] From the fluorescent microscopic photographs, the number of labeled cell was counted by means of an image analyzer. The labeling rate of retinal ganglion cell was calculated as a ratio of the number of labeled ganglion cells in the right eye to the number of labeled ganglion cells in the control eye (left eye).
On the eighth day from the angle photocoagulation, the number of alive retinal ganglion cells was counted and compared with that of a normal eye. […]

[2] = test system: retinal ganglion cells; experiment: Protective effect on retinal ganglion cells in a retinal ischemia-reperfusion rat model; type: in vivo, SD rats; conditions: fourteen days after retinal ischemia-reperfusion, n=8, control group 40%
Method: 2. Protective Effect on Retinal Ganglion Cells in a Retinal Ischemia-Reperfusion Rat Model
As a retinal ischemia-reperfusion model, the manner in Steven Roth et al. (Experimental Eye Research, Vol. 65, Pages 771-779, 1997) was used with partial modification.
As the test animals, SD rats (Japan SLC), 9 weeks old (body weight: about 300 g) were used. The operation was carried out under a halothane-anesthetized condition (introduction 5%, maintenance 2%). First, the animal was fixed on the table in a lateral decubitus, and the middle part of the skin between the external auditory canal and the external ocular angle was incised. After peeling off the temporal muscle from the cranium, the tissues surrounding the optic nerve were peeled off to expose the optic nerve. The retina central vessels were ligated together with the optic nerve with a 4-0 silk thread so as to avoid the damage of optic nerve. Thirty minutes after, the silk thread was released to reperfuse the blood flow. T-588 was orally administered 30 minutes before the ischemic treatment and just after the reperfusion. From the day next to the operation, T-588 was orally administered twice a day. […] The number of retinal ganglion cells was counted in the two region from the optic disk to 0.5 mm distant point and a ratio of the number of neurons in the ischemic eye to that in the normal eye was calculated on each individual. […]

[3] = test system: nerve growth factor; conditions: WO96/12717; cited from earlier work
[4] = test system: neuron cell death caused by amyloid β-protein; conditions: Society for Neuroscience Abstracts Vol. 24, 1998; cited from earlier work

## CCN(CC)CCOC[C@H](O)c1ccc2sccc2c1.Cl [T-588, (R)-1-(benzo[b]thiophen-5-yl)-2-[2-(N,N-diethylamino)ethoxy]ethanol hydrochloride]
[1]; eighth day from angle photocoagulation, n=9, control group 78%
  survival rate of retinal ganglion cells (tested eye compared with normal eye): 91%
[1]; glaucoma model rats
  influence on the elevation of intraocular pressure: no influence
[2]; T-588 10 mg/kg orally twice a day
  survival rate of retinal ganglion cells (tested eye compared with normal eye): 57%
[2]; T-588 30 mg/kg orally twice a day
  survival rate of retinal ganglion cells (tested eye compared with normal eye): 70%
[3]
  effect on nerve growth factor activity: nerve growth factor activity-improving effect
[4]
  effect against neuron cell death caused by amyloid β-protein: protective effects
